Columns and labels:
[1] = biological target: T1, human EDG-2 (Homo sapiens, UniProt Q92633); assay: Inhibitory activity on LPA-induced elevation of intracellular Ca2+ level; type: cell-based; conditions: 50% inhibition of elevation of intracellular Ca2+ level by LPA, human EDG-2/HepG2 cells, fura-2
T1 construct: cDNA of the cloned human EDG-2 was introduced into pEFneo, which is an animal expression vector; expressed in transfected cells; host or cells: HepG2
Procedure, shortened: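 Stably transfected HepG2 cells loaded with fura-2/AM (45 min, room temperature) in 0.1% BSA HEPES buffer. Test compound added before LPA, and the LPA-evoked intracellular Ca2+ rise measured fluorometrically. IC50 for inhibition derived.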

[2] = test system: Human EDG-2/HepG2 cells; assay: Inhibitory activity on LPA-accelerated [3H] thymidine incorporation (cell proliferation); type: cell-based; conditions: 50% inhibition of LPA-induced increase of [3H] thymidine incorporation
Source text: The human EDG-2 expression plasmid was introduced into HepG2 cells by electroporation. After the introduction, culturing was continued while exchanging selective media every 3 to 4 days, thereby obtaining an expressed colony. Regarding these cells, Ca-influx and cell-proliferation by LPA, level of [^3H] LPA binding and the like were inspected to select a cell line which highly expresses human EDG-2 (human EDG-2/HepG2).
Human EDG-2/HepG2 cells suspended in 10% bovine serum-containing DMEM (Dulbecco's modified eagle medium) were plated on a 96-well plate and, on the next day, the medium was exchanged with serum-free DMEM. 24 hours later, the medium was exchanged with DMEM containing LPA or DMEM containing no LPA, cells were cultured for further 16 hours, and [^3H] thymidine was then added. After culturing for 8 hours subsequent to the addition of [^3H] thymidine, cells were washed with PBS (phosphate-buffered saline), and the amount of [^3H] thymidine incorporated into the cells were assayed by Betaplate filter counter system (Amersham Pharmacia Biotech). The difference between the amount of [^3H] thymidine incorporated in the LPA-added well and the amount of [^3H] thymidine incorporated in the well containing no LPA represents the amount of [^3H] thymidine incorporation accelerated by LPA. […] The test compounds were added immediately before the LPA addition.

T1 sequence (Q92633 whole entry): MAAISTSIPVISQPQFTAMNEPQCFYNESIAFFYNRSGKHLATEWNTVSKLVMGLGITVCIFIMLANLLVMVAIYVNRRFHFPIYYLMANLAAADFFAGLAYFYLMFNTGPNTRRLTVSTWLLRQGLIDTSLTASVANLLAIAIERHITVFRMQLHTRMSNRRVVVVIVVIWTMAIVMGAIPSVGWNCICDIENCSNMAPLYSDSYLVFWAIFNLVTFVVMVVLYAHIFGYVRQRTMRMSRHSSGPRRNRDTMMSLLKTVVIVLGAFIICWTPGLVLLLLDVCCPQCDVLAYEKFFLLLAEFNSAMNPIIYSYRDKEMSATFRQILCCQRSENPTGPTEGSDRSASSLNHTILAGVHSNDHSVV

Compound	IC50 [1] [nM]	IC50 [2] [nM]
Cc1cnc(CNCc2ccc(-c3onc(C)c3NC(=O)OC(C)c3ccccc3Cl)cc2)cn1 (stereo not shown) [Compound 114, 1-(2-Chlorophenyl)ethyl N-{3-methyl-5-[4-({[(5-methyl-2-pyrazyl)methyl]amino}-methyl)phenyl]-4-isoxazoly}carbamate]	10000 to 30000	300 to 1000
CCOC(=O)CSCc1cccc(-c2onc(C)c2NC(=O)OC(C)c2ccccc2Cl)c1 (stereo not shown) [Compound 140, Ethyl 2-({3-[4-({[1-(2-chlorophenyl)ethoxy]carbonyl}amino)-3-methyl-5-isoxazolyl]benzyl}-sulfanyl)acetate]	3000 to 10000	300 to 1000
Cc1noc(-c2ccc(CSC(C)C(=O)O)cc2)c1NC(=O)OC(C)c1ccccc1Cl (stereo not shown) [Compound 148, 2-({4-[4-({[1-(2-Chlorophenyl)ethoxy]carbonyl}amino)-3-methyl-5-isoxazolyl]benzyl}-sulfanyl)propanoic acid]	10000 to 30000	100 to 300
Cc1noc(-c2ccc(CSCCO)cc2)c1NC(=O)OC(C)c1ccccc1Cl (stereo not shown) [Compound 120, 1-(2-Chlorophenyl)ethyl N-[5-(4-{[(2-hydroxyethyl)sulfanyl]methyl}phenyl)-3-methyl-4-isoxazolyl]carbamate]	3000 to 10000	100 to 300
COC(=O)C[S+]([O-])Cc1ccc(-c2onc(C)c2NC(=O)OC(C)c2ccccc2Cl)cc1 (stereo not shown) [Compound 134, Methyl 2-({4-[4-({[1-(2-chlorophenyl)ethoxy]carbonyl}amino)-3-methyl-5-isoxazolyl]-benzyl}sulfinyl)acetate]	3000 to 10000	100 to 300
COC(=O)CCSCc1ccc(-c2onc(C)c2NC(=O)OC(c2ccccc2)C(F)(F)F)cc1 (stereo not shown) [Compound 162, Methyl 3-{[4-(3-methyl-4-{[(2,2,2-trifluoro-1-phenylethoxy)carbonyl]amino}-5-isoxazolyl)-benzyl]-sulfanyl}propanoate]	3000 to 10000	30 to 100
Cc1noc(-c2ccc(CSCCc3ccccc3)cc2)c1NC(=O)OC(C)c1ccccc1Cl (stereo not shown) [Compound 124]	10000 to 30000	100 to 300

Other lines, results leading:

IC50 [1] [nM]	IC50 [2] [nM]	Compound
3000 to 10000	100	Cc1noc(-c2ccc(CSCCS(=O)(=O)O)cc2)c1NC(=O)OC(C)c1ccccc1Cl (stereo not shown) [Compound 151, 2-({4-[4-({[1-(2-Chlorophenyl)ethoxy]carbonyl}amino)-3-methyl-5-isoxazolyl]benzyl}-sulfanyl)-1-ethanesulfonic acid]
3000 to 10000	100 to 300	CNC(=O)CSCc1ccc(-c2onc(C)c2NC(=O)OC(C)c2ccccc2Cl)cc1 (stereo not shown) [Compound 138]
3000 to 10000	1000	CCOC(=O)COCc1ccc(-c2onc(C)c2NC(=O)OC(C)c2ccccc2Cl)cc1 (stereo not shown) [Compound 168, Ethyl 2-({4-[4-({[1-(2-chlorophenyl)ethoxy]carbonyl}amino)-3-methyl-5-isoxazolyl]-benzyl}oxy)acetate]
3000	1000	Cc1onc(-c2ccccc2)c1NC(=O)OC(C)c1ccccc1Cl (stereo not shown) [Compound 4, 1-(2-Chlorophenyl)ethyl N-(5-methyl-3-phenyl-4-isoxazolyl)carbamate]
3000 to 10000	100 to 300	C=CCSCc1ccc(-c2onc(C)c2NC(=O)OC(C)c2ccccc2Cl)cc1 (stereo not shown) [Compound 123, 1-(2-Chlorophenyl)ethyl N-(5-{4-[(allylsulfanyl)methyl]phenyl}-3-methyl-4-isoxazolyl)-carbamate]
3000 to 10000	1000	Cc1noc(-c2cccc(CSCCS(=O)(=O)O)c2)c1NC(=O)OC(C)c1ccccc1Cl (stereo not shown) [Compound 158, 2-({3-[4-({[1-(2-Chlorophenyl)ethoxy]carbonyl}amino)-3-methyl-5-isoxazolyl]benzyl}-sulfanyl)-1-ethanesulfonic acid]
3000	1000	Cc1ccsc1-c1onc(C)c1NC(=O)OC(C)c1ccccc1Cl (stereo not shown) [Compound 67, 1-(2-Chlorophenyl)ethyl N-[3-methyl-5-(3-methyl-2-thienyl)-4-isoxazolyl]carbamate]

From patent US6964975B2, “Isoxazole and thiazole compounds and use thereof as medicine” (Kirin Beer Kabushiki Kaisha, priority 2000, dated 2005)
